{"source": "patent US6965013B2", "about": "“Intermedin and its uses” (The Board of Trustees of the Leland Stanford Junior …, priority 2002, dated 2005)", "key": {"[1]": {"target": "T1, L6 skeletal myoblast cells expressing endogenous CRLR (CGRP receptor) (Rattus norvegicus, UniProt Q63118+Q9JJ74)", "T1 construct": "expressing endogenous CRLR; host or cells: L6 rat skeletal myoblast cells", "T1 sequence (Q63118 24-464)": "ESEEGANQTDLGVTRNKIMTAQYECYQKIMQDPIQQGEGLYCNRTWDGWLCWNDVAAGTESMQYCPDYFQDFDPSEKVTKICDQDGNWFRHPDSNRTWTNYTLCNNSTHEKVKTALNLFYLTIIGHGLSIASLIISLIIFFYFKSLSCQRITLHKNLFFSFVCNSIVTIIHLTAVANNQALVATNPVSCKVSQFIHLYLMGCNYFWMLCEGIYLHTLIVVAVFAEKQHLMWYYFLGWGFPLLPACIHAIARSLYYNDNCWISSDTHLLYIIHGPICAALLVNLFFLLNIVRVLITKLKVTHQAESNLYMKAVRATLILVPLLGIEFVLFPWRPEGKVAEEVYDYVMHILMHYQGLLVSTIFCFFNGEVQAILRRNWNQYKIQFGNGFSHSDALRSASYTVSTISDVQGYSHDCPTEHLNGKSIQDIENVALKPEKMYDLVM", "T1 sequence (Q9JJ74 27-148 partner)": "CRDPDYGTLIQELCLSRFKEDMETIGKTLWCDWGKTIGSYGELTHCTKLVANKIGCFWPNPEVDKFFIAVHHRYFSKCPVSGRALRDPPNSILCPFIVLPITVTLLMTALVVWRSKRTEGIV", "test": "Stimulation of cAMP production in L6 cells", "format": "cell-based", "conditions": "for cAMP production: 30 min treatment, 2.5 mM IBMX, FIG. 2B", "protocol": "(§1) Human neuroblastoma SK-N-MC and rat L6 skeletal myoblast cells expressing endogenous CRLR were obtained from American Type Culture Collection. To estimate adenylyl cyclase activation, SK-N-MC and L6 cells (2×10^5 viable cells/well) were plated in 24-well culture dishes in DMEM/F12 medium one day before treatment. Following 2 h incubation in serum-free DMEM/F12 medium, cells were treated with testing reagents for 30 min in medium containing 0.1% BSA and 2.5 mM 3-isobutyl-1-methylxanthine (IBMX, Sigma-Aldrich Corp.) to prevent hydrolysis of cAMP by phosphodiesterases. Following treatment, cells were lysed and cAMP content determined by a specific radioimmunoassay."}, "male Sprague-Dawley rats": {"tested_on": "male Sprague-Dawley rats", "test": "Blood pressure and heart rate in normal rats (tail-cuff)", "format": "in vivo, rat", "conditions": "for systolic blood pressure / heart rate: conscious male Sprague-Dawley rats, intraperitoneal; for systolic blood pressure: monitored 40 min, FIGS. 6A, 6C; for heart rate: FIG. 6B; for blockage of the hypotensive effect of IMDL: male Sprague-Dawley rats, cotreatment with IMDL, CGRP8-37 in 20-fold excess, FIG. 6C", "protocol": "(§2) Effects of intermedin on blood pressure and heart rate in normal and hypertensive rats. Blood pressure measurements in conscious male Sprague-Dawley rats and spontaneously hypertensive rats (SHR)(7-9 weeks of age) were made in animals preadapted to the measurement procedure. Indirect systolic pressure was determined by a programmable NIBP system using the tail-cuff method (Columbus Instruments, Columbus, Ohio). Following attachment of the pressure transducer, rats were left undisturbed for 10 min before baseline measurements that spanned a 15-min interval. Following baseline measurements, rats were injected intraperitoneally with varying doses of hormones. Blood pressure and heart rate were monitored for 40 min at 20-sec intervals. Changes in blood pressure were calculated as the average of thirty measurements performed within each 10-min interval."}, "[2]": {"target": "T2, SK-N-MC cells expressing endogenous CRLR (CGRP receptor) (Homo sapiens, UniProt O60894+Q16602)", "T2 construct": "expressing endogenous CRLR; host or cells: SK-N-MC human neuroblastoma cells", "T2 sequence (Q16602 23-461)": "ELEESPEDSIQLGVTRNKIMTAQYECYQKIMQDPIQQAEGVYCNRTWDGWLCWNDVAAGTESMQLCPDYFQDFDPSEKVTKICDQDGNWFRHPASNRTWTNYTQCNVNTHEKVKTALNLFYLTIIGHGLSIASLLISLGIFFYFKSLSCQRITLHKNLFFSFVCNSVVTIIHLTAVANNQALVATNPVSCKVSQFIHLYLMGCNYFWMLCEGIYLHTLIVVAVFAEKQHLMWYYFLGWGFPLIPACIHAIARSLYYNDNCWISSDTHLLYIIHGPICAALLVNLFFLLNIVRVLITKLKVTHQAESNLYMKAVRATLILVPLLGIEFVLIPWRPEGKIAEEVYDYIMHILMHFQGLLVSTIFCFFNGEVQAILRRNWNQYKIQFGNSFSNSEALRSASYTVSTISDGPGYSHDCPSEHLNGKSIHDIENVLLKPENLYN", "T2 sequence (O60894 27-148 partner)": "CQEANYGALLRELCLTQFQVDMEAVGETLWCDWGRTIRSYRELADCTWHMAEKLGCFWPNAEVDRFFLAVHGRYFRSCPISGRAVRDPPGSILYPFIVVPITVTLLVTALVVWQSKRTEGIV", "test": "Stimulation of cAMP production in SK-N-MC cells", "format": "cell-based", "conditions": "30 min treatment, 2.5 mM IBMX, FIG. 2A", "protocol": "as §1"}, "C57/BL6 male mice [3]": {"tested_on": "C57/BL6 male mice", "test": "Gastric emptying activity in mice", "format": "in vivo, mouse", "conditions": "intraperitoneal 100 nM/Kg, 90 min after hormone treatment, FIG. 8", "protocol": "Effects of intermedin on gastric emptying activity. Eight-week-old C57/BL6 male mice deprived of food for 20 h were given food pellets for 90 min before intraperitoneal injection with different hormones or saline. After treatment, mice were deprived of food again and killed 90 min later. The stomach was excised at the pylorus and cardia before weighing. Gastric emptying was calculated by comparing the stomach weight of treated mice to the stomach weight of control mice killed at the time of hormone injection."}, "C57/BL6 male mice [4]": {"tested_on": "C57/BL6 male mice", "test": "Cumulative food intake in fasted mice", "format": "in vivo, mouse", "conditions": "mice fasted 20 h, intraperitoneal 100 nM/Kg, 1, 2 and 4 h after treatment, FIG. 7", "protocol": "Analysis of ingestive behavior. Eight-week-old C57/BL6 male mice were housed individually in a regulated environment. Before intraperitoneal injection with testing reagents, mice were deprived of food for 20 h with free access to water. Food intake was measured by placing preweighed pellets in the cage and weighing uneaten pellets at 1, 2, and 4 h after treatment."}, "[5]": {"conditions": "humans, administration of ADM, earlier studies; cited from earlier work"}, "[6]": {"tested_on": "spontaneously hypertensive rats (SHR)", "test": "Blood pressure in spontaneously hypertensive rats (tail-cuff)", "format": "in vivo, rat", "conditions": "male SHR, FIG. 6D; for blockage of the hypotensive effects of IMDL: cotreatment with IMDL", "protocol": "as §2"}, "[7]": {"target": "T3, CGRP receptor (CRLR) on intact L6 cells (Rattus norvegicus, UniProt Q63118+Q9JJ74)", "T3 construct": "expressing endogenous CRLR; host or cells: L6 rat skeletal myoblast cells", "T3 sequence (Q63118 24-464)": "as the sequence (Q63118 24-464) above", "T3 sequence (Q9JJ74 27-148 partner)": "as the sequence (Q9JJ74 27-148 partner) above", "test": "Receptor-binding assay, displacement of 125I-CGRP from L6 cells", "conditions": "37C, 2 h, FIG. 2F", "protocol": "Receptor-binding assay. Ligand-binding assays were done in siliconized microfuge tubes at 37C for 2 h. […] After a 2 h incubation at 37C, the cell-associated ligand was estimated. Radioactivity was determined using a γ-counter (EG&G Wallace, Gaithersburg, Md.)."}, "[8]": {"target": "T4, endogenous calcitonin receptor (Homo sapiens, UniProt P30988)", "T4 construct": "through the endogenous calcitonin receptor; endogenous in cells; host or cells: HEK293T", "T4 sequence (P30988 25-474)": "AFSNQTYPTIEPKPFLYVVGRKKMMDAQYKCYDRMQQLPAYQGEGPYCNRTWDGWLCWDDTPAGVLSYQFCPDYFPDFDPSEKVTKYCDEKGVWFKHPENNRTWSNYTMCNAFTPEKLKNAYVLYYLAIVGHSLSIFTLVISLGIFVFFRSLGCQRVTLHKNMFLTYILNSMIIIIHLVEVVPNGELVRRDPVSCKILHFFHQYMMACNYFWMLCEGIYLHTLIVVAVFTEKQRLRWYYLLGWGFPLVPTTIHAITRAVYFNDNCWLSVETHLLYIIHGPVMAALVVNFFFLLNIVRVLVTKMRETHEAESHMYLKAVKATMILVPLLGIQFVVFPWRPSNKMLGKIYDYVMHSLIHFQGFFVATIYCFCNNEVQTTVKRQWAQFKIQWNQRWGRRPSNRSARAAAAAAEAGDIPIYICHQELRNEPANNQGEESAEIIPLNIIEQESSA", "test": "cAMP production in 293T cells via the endogenous calcitonin receptor", "format": "cell-based", "conditions": "FIG. 3A"}}, "note": "Ends that are not written are not given here."}
{"substance": "nonamidated form of intermedin: nonamidated form of the synthetic intermedin peptide", "values": [{"measurement": "cAMP production", "setting": "[1]", "result": "no effect"}]}
{"substance": "prointermedin55-85: 31-amino-acid peptide from the prepro-region of human intermedin (PRPVVWKLHRALQAQRGAGLAPVMGQPLRDG; pro-form; UniProt Q7Z4H4 55-85, looked up, fragment)", "values": [{"measurement": "systolic blood pressure", "setting": "male Sprague-Dawley rats", "result": "no effect"}, {"measurement": "cAMP production", "setting": "[2]", "result": "no effect"}, {"measurement": "cAMP production", "setting": "[1]", "result": "no effect"}]}
{"substance": "adrenomedullin [ADM, reference compound]", "values": [{"measurement": "heart rate", "setting": "male Sprague-Dawley rats", "result": "Increase in heart rate"}, {"measurement": "systolic blood pressure", "setting": "male Sprague-Dawley rats", "result": "dose-dependently suppressed systolic blood pressure"}, {"measurement": "gastric emptying activity", "setting": "C57/BL6 male mice [3]", "result": "suppressed the gastric emptying activity, but with a lower potency"}, {"measurement": "cumulative food intake", "setting": "C57/BL6 male mice [4]", "result": "decreased food intake"}, {"measurement": "cAMP production", "setting": "[1]", "result": "stimulated cAMP production"}, {"measurement": "circulating prolactin levels", "setting": "[5]", "result": "increases circulating prolactin levels"}]}
{"substance": "IMDL: 47-amino-acid amidated mature human intermedin peptide, SEQ ID NO:5 residues 1-47", "values": [{"measurement": "heart rate", "setting": "male Sprague-Dawley rats", "result": "increased heart rate"}, {"measurement": "systolic blood pressure", "setting": "male Sprague-Dawley rats", "result": "dose-dependently suppressed blood pressure"}, {"measurement": "gastric emptying activity", "setting": "C57/BL6 male mice [3]", "result": "Reduction of gastric emptying"}, {"measurement": "cumulative food intake", "setting": "C57/BL6 male mice [4]", "result": "decreased food intake"}, {"measurement": "cAMP production", "setting": "[1]", "result": "dose-dependent increases of cAMP production"}, {"measurement": "blood pressure", "setting": "[6]; intraperitoneal", "result": "reduced blood pressure"}, {"measurement": "competitive displacement of 125I-CGRP binding", "setting": "[7]", "result": "displaced ^125I-CGRP binding"}]}
{"substance": "ADM22-52: low affinity ADM22-52 fragment (TVQKLAHQIYQFTDKDKDNVAPRSKISPQGY; ends and bridges not checked; UniProt P35318 116-146, looked up, fragment)", "values": [{"measurement": "blockage of the hypotensive effects of IMDL", "setting": "[6]", "result": "minimal effect"}]}
{"substance": "CGRP8-37: N-terminally truncated CGRP, a CGRP receptor antagonist (VTHRLAGLLSRSGGVVKNNFVPTNVGSKAF; ends and bridges not checked; UniProt P06881 90-119, looked up, fragment) [reference compound]", "values": [{"measurement": "blockage of the hypotensive effect of IMDL", "setting": "male Sprague-Dawley rats", "result": "significantly decreased the hypotensive effects of IMDL"}, {"measurement": "blockage of the hypotensive effects of IMDL", "setting": "[6]", "result": "abolished"}]}
{"substance": "IMDS: 40-amino-acid amidated mature human intermedin peptide, SEQ ID NO:5 residues 8-47", "values": [{"measurement": "heart rate", "setting": "male Sprague-Dawley rats", "result": "increased heart rate"}, {"measurement": "systolic blood pressure", "setting": "male Sprague-Dawley rats", "result": "dose-dependently suppressed blood pressure"}, {"measurement": "gastric emptying activity", "setting": "C57/BL6 male mice [3]", "result": "Reduction of gastric emptying"}, {"measurement": "cumulative food intake", "setting": "C57/BL6 male mice [4]", "result": "decreased food intake"}, {"measurement": "cAMP production", "setting": "[1]", "result": "dose-dependent increases of cAMP production"}, {"measurement": "competitive displacement of 125I-CGRP binding", "setting": "[7]", "result": "displaced ^125I-CGRP binding"}]}
{"substance": "calcitonin", "values": [{"measurement": "cAMP production", "setting": "[8]", "result": "increases cAMP dose-dependently"}]}
{"substance": "SRP/urocortin II: type II CRH receptor-selective agonist, known gastric emptying suppression peptide (IVLSLDVPIGLLQILLEQARARAAREQATTNARILARVGHC; Urocortin-2; UniProt Q96RP3 72-112, looked up) [reference compound]", "values": [{"measurement": "gastric emptying activity", "setting": "C57/BL6 male mice [3]", "result": "Reduction of gastric emptying"}, {"measurement": "cumulative food intake", "setting": "C57/BL6 male mice [4]", "result": "decreased food intake"}]}
{"substance": "IMD17-47: truncated amidated intermedin fragment, putative C-terminal receptor-binding domain (VQNLSHRLWQLMGPAGRQDSAPVDPSSPHSY-NH2)", "values": [{"measurement": "systolic blood pressure", "setting": "male Sprague-Dawley rats", "result": "no effect"}, {"measurement": "blockage of the hypotensive effect of IMDL", "setting": "male Sprague-Dawley rats", "result": "blocked the hypotensive effects of IMDL"}, {"measurement": "cAMP production", "setting": "[2]", "result": "no effect"}, {"measurement": "cAMP production", "setting": "[1]", "result": "no effect"}, {"measurement": "blockage of the stimulatory effect of intermedin on cAMP production", "setting": "[1]; cotreatment with intermedin, IMD17-47 at 1 μM, FIGS. 2C, 2D", "result": "functional antagonist of intermedin action"}]}
